Source: patent US20070202078A1, “Method Of Treating Viral Infections” (priority 2003, published 2007)

Experiments:
HCV = conditions: cited from earlier work

NC(=O)c1ncn([C@@H]2O[C@H](CO)[C@@H](O)[C@H]2O)n1 [Ribavirin, ribavirin]
virologic response (hepatitis C; Example A: lower doses of ribavirin (less than 400 mg/day or less than 6 mg/kg/day), slow-release, with 3 million IU Intron A once weekly): sustained virologic response
therapeutic response versus conventional or systemic doses (hepatitis C; Example B: higher doses of ribavirin (600 mg/day), slow-release, with 3 million IU Intron A once weekly): more complete or faster therapeutic response
side effects versus conventional or systemic doses (hepatitis C; human, in vivo): lower side effects
effect on HCV viral load or hepatic histology (HCV; given as monotherapy, orally): no effect

interferon alfa 2b
response rate (measured by major fall in HCV levels) (HCV; administered parenterally for up to 6 months): ~25%
